This passage reports Hepatotoxicity results from ChEMBL document CHEMBL1697731, “Cheminformatics analysis of assertions mined from literature that describe drug-induced liver injury in different species” (Chem Res Toxicol, 2010).

The structures appear in SMILES notation.

For series [1], the system named is Hepatotoxicity. In words: Literature-mined compound from Fourches et al multi-species drug-induced liver injury (DILI) dataset, effect in rodents. To be noted: rodentia.
Series [2] has as its system Hepatotoxicity. Kind of series: Literature-mined compound from Fourches et al multi-species drug-induced liver injury (DILI) dataset, effect in non-rodents.
For series [3], the system named is Hepatotoxicity. In words: Literature-mined compound from Fourches et al multi-species drug-induced liver injury (DILI) dataset, effect in humans. To be noted: human.

Take `Cc1ccc(S(=O)(=O)[N-]Cl)cc1.[Na+]` [CHLORAMINE-T ANHYDROUS]: the Hepatotoxicity entry is on record as “drug-induced liver injury reported” in series [1], “drug-induced liver injury reported” in series [2] and “no drug-induced liver injury reported” in series [3].

On to `O=C(N[C@H](CO)[C@H](O)c1ccc([N+](=O)[O-])cc1)C(Cl)Cl` [CHLORAMPHENICOL], for which the results for the Hepatotoxicity entry in series [1], in series [2] and in series [3] were “drug-induced liver injury reported”, “no drug-induced liver injury reported” and “drug-induced liver injury reported”, respectively.

As for `CNC1=Nc2ccc(Cl)cc2C(c2ccccc2)=[N+]([O-])C1` [CHLORDIAZEPOXIDE], the Hepatotoxicity entry in series [1] was “drug-induced liver injury reported”; in series [2], “no drug-induced liver injury reported”; in series [3], “no drug-induced liver injury reported”.

Turning to `CC(=O)O[C@]1(C(C)=O)CC[C@H]2[C@@H]3C=C(Cl)C4=CC(=O)CC[C@]4(C)[C@H]3CC[C@@]21C` [CHLORMADINONE ACETATE], the Hepatotoxicity entry in series [1], in series [2] and in series [3] was “drug-induced liver injury reported” in each case.

Take `CN1C(=O)CCS(=O)(=O)C1c1ccc(Cl)cc1` (centres undefined) [CHLORMEZANONE]: the Hepatotoxicity result is on record as “no drug-induced liver injury reported” in series [1], “no drug-induced liver injury reported” in series [2] and “drug-induced liver injury reported” in series [3].

For `Clc1ccc(C(c2ccc(Cl)cc2)C(Cl)(Cl)Cl)cc1` [CHLOROPHENOTHANE], the Hepatotoxicity result in series [1] is reported as “drug-induced liver injury reported”; in series [2], “no drug-induced liver injury reported”; in series [3] it was “no drug-induced liver injury reported”.

Take `CCN(CC)CCCC(C)Nc1ccnc2cc(Cl)ccc12` (centres undefined) [CHLOROQUINE]: the Hepatotoxicity entry in series [1], in series [2] and in series [3] was “drug-induced liver injury reported” each time.

As for `Cc1cc(O)cc(C)c1Cl` [CHLOROXYLENOL], the Hepatotoxicity entry in series [1] is “drug-induced liver injury reported”; in series [2], “no drug-induced liver injury reported”; in series [3] it was “no drug-induced liver injury reported”.

With `CN(C)CCC(c1ccc(Cl)cc1)c1ccccn1` (centres undefined) [CHLORPHENIRAMINE], the Hepatotoxicity entry is given as “no drug-induced liver injury reported” in series [1], “no drug-induced liver injury reported” in series [2] and “drug-induced liver injury reported” in series [3].

Consider `CN(C)CCCN1c2ccccc2Sc2ccc(Cl)cc21` [CHLORPROMAZINE], for which the Hepatotoxicity entry in series [1], in series [2] and in series [3] was “drug-induced liver injury reported” in each case.

Consider `CCCNC(=O)NS(=O)(=O)c1ccc(Cl)cc1` [CHLORPROPAMIDE], for which the Hepatotoxicity result in series [1] is “drug-induced liver injury reported”; in series [2], “no drug-induced liver injury reported”; in series [3] it was “drug-induced liver injury reported”.

Consider `CN(C)[C@@H]1C(O)=C(C(N)=O)C(=O)[C@@]2(O)C(O)=C3C(=O)c4c(O)ccc(Cl)c4[C@@](C)(O)[C@H]3C[C@@H]12` [CHLORTETRACYCLINE], for which the Hepatotoxicity entry is recorded as “drug-induced liver injury reported” in series [1], “drug-induced liver injury reported” in series [2] and “no drug-induced liver injury reported” in series [3].

Turning to `C=C1CC[C@H](O)C/C1=C/C=C1\CCC[C@]2(C)[C@@H]([C@H](C)CCCC(C)C)CC[C@@H]12` [CHOLECALCIFEROL], the Hepatotoxicity result in series [1] is listed as “drug-induced liver injury reported”; in series [2] it was “no drug-induced liver injury reported”; in series [3], “no drug-induced liver injury reported”.

On to `Nc1ccn(C[C@@H](CO)OCP(=O)(O)O)c(=O)n1.O.O` [CIDOFOVIR], for which the Hepatotoxicity result was “no drug-induced liver injury reported” in series [1], “no drug-induced liver injury reported” in series [2] and “drug-induced liver injury reported” in series [3].

On to `CN/C(=N/CCSCc1nc[nH]c1C)NC#N` [CIMETIDINE], for which the Hepatotoxicity result in series [1] (Liver), in series [2] (Liver) and in series [3] (Liver) was “drug-induced liver injury reported” throughout.

As for `O=C(O)c1cc(-c2ccccc2)nc2ccccc12` [CINCHOPHEN], the results for the Hepatotoxicity entry in series [1], in series [2] and in series [3] were “no drug-induced liver injury reported”, “drug-induced liver injury reported” and “drug-induced liver injury reported”, respectively.

In the case of `CCn1nc(C(=O)O)c(=O)c2cc3c(cc21)OCO3` [CINOXACIN], the Hepatotoxicity entry is recorded as “no drug-induced liver injury reported” in series [1], “no drug-induced liver injury reported” in series [2] and “drug-induced liver injury reported” in series [3].

As for `CC(C)(Oc1ccc(C2CC2(Cl)Cl)cc1)C(=O)O` (centres undefined) [CIPROFIBRATE], the Hepatotoxicity result in series [1], in series [2] and in series [3] was “drug-induced liver injury reported” in each case.

`O=C(O)c1cn(C2CC2)c2cc(N3CCNCC3)c(F)cc2c1=O` [CIPROFLOXACIN]: the values for the Hepatotoxicity entry in series [1] (Liver), in series [2] (Liver) and in series [3] (Liver) were “drug-induced liver injury reported”, “no drug-induced liver injury reported” and “drug-induced liver injury reported”, respectively.

For `COc1cc(N)c(Cl)cc1C(=O)NC1CCN(CCCOc2ccc(F)cc2)CC1OC` (centres undefined) [CISAPRIDE], the values for the Hepatotoxicity entry in series [1], in series [2] and in series [3] were “no drug-induced liver injury reported”, “no drug-induced liver injury reported” and “drug-induced liver injury reported”, respectively.

In the case of `CN(C)CCCC1(c2ccc(F)cc2)OCc2cc(C#N)ccc21` (centres undefined) [CITALOPRAM], the Hepatotoxicity result in series [1] is given as “drug-induced liver injury reported”; in series [2], “no drug-induced liver injury reported”; in series [3], “no drug-induced liver injury reported”.

With `O=C(O)CC(O)(CC(=O)O)C(=O)O` [CITRIC ACID], the Hepatotoxicity entry in series [1] was “drug-induced liver injury reported”; in series [2] it was “no drug-induced liver injury reported”; in series [3] it was “no drug-induced liver injury reported”.

As to `Nc1nc(Cl)nc2c1ncn2[C@H]1C[C@H](O)[C@@H](CO)O1` [CLADRIBINE], the values for the Hepatotoxicity entry in series [1], in series [2] and in series [3] were “no drug-induced liver injury reported”, “no drug-induced liver injury reported” and “drug-induced liver injury reported”, respectively.

For the compound `CC[C@H]1OC(=O)[C@H](C)[C@@H](O[C@H]2C[C@@](C)(OC)[C@@H](O)[C@H](C)O2)[C@H](C)[C@@H](O[C@@H]2O[C@H](C)C[C@H](N(C)C)[C@H]2O)[C@](C)(OC)C[C@@H](C)C(=O)[C@H](C)[C@@H](O)[C@]1(C)O` [CLARITHROMYCIN], the Hepatotoxicity result in series [1] is listed as “drug-induced liver injury reported”; in series [2], “no drug-induced liver injury reported”; in series [3], “drug-induced liver injury reported”.

With `O=C(O)[C@H]1/C(=C/CO)O[C@@H]2CC(=O)N21` [CLAVULANIC ACID], the figures for the Hepatotoxicity result in series [1], in series [2] and in series [3] were “no drug-induced liver injury reported”, “no drug-induced liver injury reported” and “drug-induced liver injury reported”, respectively.

Turning to `CCC[C@@H]1C[C@@H](C(=O)N[C@@H]([C@H]2O[C@H](SC)[C@H](O)[C@@H](O)[C@H]2O)[C@H](C)Cl)N(C)C1` [CLINDAMYCIN], the Hepatotoxicity result in series [1] is recorded as “no drug-induced liver injury reported”; in series [2], “no drug-induced liver injury reported”; in series [3] it was “drug-induced liver injury reported”.

With `Oc1c(I)cc(Cl)c2cccnc12` [CLIOQUINOL], the figures for the Hepatotoxicity entry in series [1], in series [2] and in series [3] were “drug-induced liver injury reported”, “no drug-induced liver injury reported” and “no drug-induced liver injury reported”, respectively.

Consider `CN1C(=O)CC(=O)N(c2ccccc2)c2cc(Cl)ccc21` [CLOBAZAM], for which the figures for the Hepatotoxicity result in series [1], in series [2] and in series [3] were “no drug-induced liver injury reported”, “no drug-induced liver injury reported” and “drug-induced liver injury reported”, respectively.

As for `O=P(O)(O)C(Cl)(Cl)P(=O)(O)O` [CLODRONIC ACID], the Hepatotoxicity entry in series [1] was “drug-induced liver injury reported”; in series [2], “no drug-induced liver injury reported”; in series [3] it was “no drug-induced liver injury reported”.

Consider `Nc1nc(Cl)nc2c1ncn2[C@@H]1O[C@H](CO)[C@@H](O)[C@@H]1F` [CLOFARABINE], for which the Hepatotoxicity entry in series [1] is listed as “no drug-induced liver injury reported”; in series [2], “no drug-induced liver injury reported”; in series [3] it was “drug-induced liver injury reported”.

Consider `CC(C)/N=c1\cc2n(-c3ccc(Cl)cc3)c3ccccc3nc-2cc1Nc1ccc(Cl)cc1` [CLOFAZIMINE], for which the Hepatotoxicity entry in series [1] was “no drug-induced liver injury reported”; in series [2] it was “no drug-induced liver injury reported”; in series [3], “drug-induced liver injury reported”.

Consider `CCOC(=O)C(C)(C)Oc1ccc(Cl)cc1` [CLOFIBRATE], for which the Hepatotoxicity entry in series [1], in series [2] and in series [3] was “drug-induced liver injury reported” throughout.

With `Cc1ncsc1CCCl` [CLOMETHIAZOLE], the Hepatotoxicity result in series [1] is given as “drug-induced liver injury reported”; in series [2] it was “no drug-induced liver injury reported”; in series [3] it was “drug-induced liver injury reported”.
